Results reported in PMC12529149, “Chemical and Antiplasmodial Investigations on Carapa-Derived Gedunin Derivatives and Semisynthetic 6- and 7‑Substituted Gedunin Analogues from the Brazilian Amazon” (ACS Omega, 2025).
Values joined by “and” are separate entries in the source; they are usually repeats but may differ in a detail not shown here. Identical values can stand only once. Counter-ions that a name gives are not always drawn. Like-named read-outs stand apart in the source and are kept apart here.

How the values were obtained:
[1] = parameters: method as in literature (number not shown); conditions: low pH similar to mouse and human stomachs; ref literature (number not shown); cited from earlier work
[2] = tested on: Plasmodium berghei; conditions: oral, 50 mg/kg/day together with dillapiole 25 mg/kg/day (binary treatment), mice; ref literature (numbers not shown); cited from earlier work
[3] = tested on: P. falciparum; parameters: method as in literature (number not shown); conditions: strain not stated, ref literature (number not shown), cited from earlier work
[4] = tested on: P. falciparum W2 strain; parameters: method as in literature (numbers not shown); conditions: ref literature (numbers not shown); cited from earlier work
[5] = tested on: P. falciparum D6 strain; parameters: method as in literature (numbers not shown); conditions: ref literature (numbers not shown); cited from earlier work
[6] = tested on: P. falciparum FCR3 strain; parameters: method as in literature (numbers not shown); conditions: ref literature (numbers not shown); cited from earlier work
[7] = tested on: mouse mammary carcinoma (FM3A) cell cultures; parameters: method as in literature (number not shown); conditions: ref literature (number not shown); cited from earlier work
[8] = tested on: K1 strain of Plasmodium falciparum; experiment: In vitro susceptibility assay (microtest), P. falciparum K1 growth inhibition; assay type: cell-based
Procedure: In vitro culture of the K1 strain of P. falciparum (MRA-159, MR4, ATCC, Manassas, Virginia, USA) proceeded following an established method with modifications. Briefly, this method involved the growth of parasites in human type A+ red blood cells and RPMI 1640 medium supplemented with 10% type A+ human plasma at 37 °C under an atmosphere of 5% O2, 5% CO2, and 90% N2.
As initial condition for the susceptibility assay, cultures were synchronized by treatment with 5% D-sorbitol, which provided young trophozoites (ring stages). Performance of the microtest followed a previously described procedure with modifications. Compounds were dissolved in DMSO with the aid of an ultrasound bath to provided stock solutions. […] These diluted samples were evaluated in duplicate in a 96-well test plate. A suspension of parasitized red blood cells (pRBCs) at 2% hematocrit and 1% parasitemia was added to each well. Microplate incubation proceeded for 48 h at 37 °C under the same atmosphere used for parasite culture in two independent experiments conducted on different days. Control wells contained chloroquine (0.003–2.5 μg/mL) and quinine (0.003–2.5 μg/mL). Six (6) control (blank) wells were prepared with pRBCs suspension. Six cosolvent control wells were prepared with 1% DMSO and pRBCs suspension. An average of these 12 controls defined drug-free (untreated) growth. After the incubation period, thin blood smears of the contents of each well were prepared on microscope slides. Optical microscopy was used to analyze the blood smears and establish the parasitemia of each well. Interpolation of the nonlinear curve using GraphPad Prism permitted the calculation of estimates of the sample concentrations able to inhibit 50% of parasite growth (IC50) compared to drug-free controls.

[9] = tested on: variety of P. falciparum strains; conditions: cited from earlier work
[10] = tested on: P. falciparum K1 strain; parameters: method as in earlier work; conditions: ref previous reports incl. authors' earlier work (numbers not shown); cited from earlier work
[11] = tested on: P. falciparum K1 strain vs MRC-5 human fibroblasts; experiment: Selectivity index, IC50 (human fibroblasts) ÷ IC50 (P. falciparum); assay type: cell-based, Plasmodium falciparum
Excerpt: Calculation of the selectivity index (SI) using the following formula afforded the relative toxicity of each sample to human fibroblasts and to P. falciparum blood stages: SI = IC50 (human fibroblasts) ÷ IC50 (P. falciparum).

[12] = tested on: MRC-5 human fibroblasts; experiment: Cytotoxicity/cell viability assay (Alamar blue); assay type: cell-based; conditions: read-out: fibroblasts IC50
Procedure: Medical Research Council cell strain 5 (MRC-5) human fetal fibroblasts were cultivated in Dulbecco′s modified Eagle’s medium (DMEM) supplemented with 10% bovine fetal serum and 1% antibiotic at 37 °C under an atmosphere of 5% CO2. Cell viability assessment relied on the Alamar blue method. […] Doxorubicin at concentrations of 0.312, 0.625, 1.25, 2.50, 5.00, 10.0, and 20.0 μM was used as a positive control for cell death. The negative control wells received DMSO (sample diluent) at 0.1%. In preparation for the assay, this method involved plating 0.5 × 10^4 cells/well on 96 well test plates and incubating for 24 h under the same conditions used for cell culture. This initial 24 h period was necessary for cell adhesion. The assay consisted of triplicate addition of diluted samples and controls to wells followed by 48 h of incubation. For quantification of viable cells, 10 μL of 0.4% Alamar blue (Sigma-Aldrich)–which works out to an in-well concentration of 0.02%–were added to each well 3 h before the end of the treatment. Alamar blue was allowed to react for 3 h followed by quantification of the optical density (OD) of each well at an excitation wavelength of 465 nm and emission wavelength of 540 nm using an ELISA plate reader (DTX-800, Beckman Coulter). Comparison of individual sample viability OD to that of controls (blanks) afforded the cell viability. Interpolation of the nonlinear curve using GraphPad Prism software permitted the calculation of estimates of the sample IC50 values compared to drug-free controls.

[13] = Plasmodium falciparum, K1, 48 h, read-out: P. falciparum IC50 (CI95), K1 strain, 48 h, CI95 in brackets
[14] = MRC5, MRC-5, tested at 50 μg/mL for 48 h
[15] = Plasmodium falciparum, K1, 48 h, K1 strain, 48 h, CI95 in brackets, read-out: P. falciparum IC50 (CI95)

| Compound | selectivity index (SI) [11] | IC50 [12, 14] [µM] | IC50 [8, 15] | other results |
| --- | --- | --- | --- | --- |
| 7-deacetyl-7α-methoxygedunin [reference compound] |  |  |  | stability at low pH [1]: good stability at low pH; suppression of P. berghei vs untreated controls [2]: 68–81%; IC50 ([3]; read-out: IC50, P. falciparum in vitro): 1.6 to 1.7 µM |
| CC(=O)O[C@@H]1C[C@H]2C(C)(C)C(=O)C=C[C@]2(C)[C@H]2CC[C@@]3(C)[C@H](c4ccoc4)OC(=O)[C@H]4O[C@]43[C@@]21C (single isomer, unassigned) [(−)-gedunin, reference compound] |  |  |  | IC50 [4]: 0.041 to 0.65 µM; IC50 ([3]; 48 h, read-out: IC50 after 48 h): 1 µM; IC50 ([3]; 96 h, read-out: IC50 after 96 h): 0.3 µM; IC50 [5]: 0.081 to 0.63 µM |
| CC(=O)O[C@H]1[C@@H](O)[C@]2(C)[C@H](CC[C@@]3(C)[C@H](c4ccoc4)OC(=O)[C@H]4O[C@@]423)[C@@]2(C)C=CC(=O)C(C)(C)[C@H]12 [6α-acetoxy-7-deacetylgedunin, reference compound] |  |  |  | IC50 [6]: 4 µM |
| CC(=O)O[C@H]1[C@@H](OC(C)=O)[C@]2(C)[C@H](CC[C@@]3(C)[C@H](c4ccoc4)OC(=O)[C@H]4O[C@@]423)[C@@]2(C)C=CC(=O)C(C)(C)[C@H]12 [6α-acetoxygedunin] |  |  |  | toxicity to FM3A cells [7]: toxic; IC50 [6]: 2.8 µM |
| CCN(CC)CCCC(C)Nc1ccnc2cc(Cl)ccc12 (stereo not shown) [chloroquine diphosphate, reference compound] |  |  |  | IC50 ([8]; Plasmodium falciparum, K1, 48 h, read-out: P. falciparum IC50 (CI95)): 0.18 µg/mL and 350 nM |
| CC1(C)C(=O)C=C[C@]2(C)[C@H]3CC[C@@]4(C)[C@H](c5ccoc5)OC(=O)[C@H]5O[C@]54[C@]3(C)C(=O)C[C@@H]12 [compound 1, 7-Deacetyl-7-oxogedunin] |  |  |  | IC50 [4]: > 20.7 µM; toxicity to FM3A cells [7]: toxic; IC50 ([9]; FCR3 and INDO strains, ref previous reports (numbers not shown), read-out: IC50): 2.5 to 7.5 µM; IC50 [5]: > 20.7 µM |
| CC1(C)C(=O)C=C[C@]2(C)[C@H]3CC[C@@]4(C)[C@H](c5ccoc5)OC(=O)[C@H]5O[C@]54[C@]3(C)[C@H](O)C[C@@H]12 [compound 2, 7-deacetylgedunin] | >8.5 |  |  | stability at low pH [1]: react at low pH; IC50 [10]: 3.1 µM; IC50 ([12]; MRC5, 48 h): > 110 µM; IC50 ([9]; variety of strains (3D7, D6, D10, W2, INDO), ref several previous reports (numbers not shown), read-out: IC50, in vitro growth): 1.3 to 5.9 µM; IC50 [8, 13]: 5.9 µg/mL; IC50 ([8]; read-out: P. falciparum IC50 (CI95), K1 strain, 48 h, CI95 in brackets): 13 µM |
| CC1(C)C(=O)C=C[C@]2(C)[C@H]3CC[C@@]4(C)[C@H](c5ccoc5)OC(=O)[C@H]5O[C@]54[C@]3(C)[C@@H](O)C[C@@H]12 [compound 3, 7-deacetyl-7-epi-gedunin] | >15 |  |  | IC50 ([12]; MRC5, 48 h): > 110 µM; IC50 [8, 13]: 3.4 µg/mL and 7.8 µM |
| CC(=O)O[C@H]1C[C@H]2C(C)(C)C(=O)C=C[C@]2(C)[C@H]2CC[C@@]3(C)[C@H](c4ccoc4)OC(=O)[C@H]4O[C@]43[C@]12C [compound 5, 7-epi-gedunin] | >45 | > 100 | 1.1 µg/mL and 2.3 µM |  |
| CCCC(=O)O[C@@H]1C[C@H]2C(C)(C)C(=O)C=C[C@]2(C)[C@H]2CC[C@@]3(C)[C@H](c4ccoc4)OC(=O)[C@H]4O[C@]43[C@@]21C [compound 6, 7-deacetyl-7-butanoylgedunin] | >21 |  |  | IC50 ([12]; MRC5, 48 h): > 98 µM; IC50 [8, 13]: 2.4 µg/mL and 4.7 µM |
| CCCC(=O)O[C@H]1C[C@H]2C(C)(C)C(=O)C=C[C@]2(C)[C@H]2CC[C@@]3(C)[C@H](c4ccoc4)OC(=O)[C@H]4O[C@]43[C@]12C [compound 7, 7-deacetyl-7-butanoyl-7-epi-gedunin] | >21 |  |  | IC50 ([12]; MRC5, 48 h): > 98 µM; IC50 [8, 13]: 2.4 µg/mL and 4.7 µM |
| CCCCC(=O)O[C@@H]1C[C@H]2C(C)(C)C(=O)C=C[C@]2(C)[C@H]2CC[C@@]3(C)[C@H](c4ccoc4)OC(=O)[C@H]4O[C@]43[C@@]21C [compound 8, 7-deacetyl-7-pentanoylgedunin] | >12 | > 95 | 4.2 µg/mL and 8 µM |  |
| CCCCC(=O)O[C@H]1C[C@H]2C(C)(C)C(=O)C=C[C@]2(C)[C@H]2CC[C@@]3(C)[C@H](c4ccoc4)OC(=O)[C@H]4O[C@]43[C@]12C [compound 9, 7-deacetyl-7-pentanoyl-7-epi-gedunin] | >14 | > 95 | 3.7 µg/mL and 7 µM |  |
| CC1(C)C(=O)C=C[C@]2(C)[C@H]3CC[C@@]4(C)[C@H](c5ccoc5)OC(=O)[C@H]5O[C@]54[C@]3(C)[C@H](O)[C@H](O)[C@@H]12 [compound 10, 7-deacetyl-6α-hydroxygedunin] | >16 | > 100 | 2.8 µg/mL and 6.1 µM | IC50 [10]: 5 µM |
| CC(=O)O[C@@H]1[C@H](O)[C@H]2C(C)(C)C(=O)C=C[C@]2(C)[C@H]2CC[C@@]3(C)[C@H](c4ccoc4)OC(=O)[C@H]4O[C@]43[C@]12C [compound 11, 6α-hydroxygedunin] | >26 | > 110 | 2.2 µg/mL and 4.4 µM | IC50 [6]: 90 µM |
| CCCC(=O)O[C@H]1[C@@H](O)[C@]2(C)[C@H](CC[C@@]3(C)[C@H](c4ccoc4)OC(=O)[C@H]4O[C@@]423)[C@@]2(C)C=CC(=O)C(C)(C)[C@H]12 [compound 13, 7-deacetyl-6α-butanoyloxygedunin] | >15 | > 100 | 3.7 µg/mL and 7.1 µM |  |
| CC1(C)C(=O)C=C[C@]2(C)[C@H]3CC[C@@]4(C)[C@H](c5ccoc5)OC(=O)[C@H]5O[C@]54[C@]3(C)[C@H](O)[C@H](OC(=O)c3ccccc3)[C@@H]12 [compound 14, 7-deacetyl-6α-benzoxygedunin] | >11 | > 110 | 5.1 µg/mL and 10 µM |  |
| CCCCCCC(=O)O[C@H]1[C@@H](O)[C@]2(C)[C@H](CC[C@@]3(C)[C@H](c4ccoc4)OC(=O)[C@H]4O[C@@]423)[C@@]2(C)C=CC(=O)C(C)(C)[C@H]12 [compound 15, 7-deacetyl-6α-heptanoyloxygedunin] | >9.4 | > 88 | 5.4 µg/mL and 9.4 µM |  |
| CC1(C)[C@H](O)CC[C@]2(C)[C@H]3CC[C@@]4(C)[C@H](c5ccoc5)OC(=O)[C@H]5O[C@]54[C@]3(C)[C@@H](O)C[C@@H]12 [compound 16, 7-deacetyl-3-deoxo-1,2-dihydro-3α-hydroxy-7-epi-gedunin] | >3.2 | > 110 | 16 µg/mL |  |
| C=C[C@H]1C[N@@]2CC[C@H]1C[C@H]2[C@H](O)c1ccnc2ccc(OC)cc12 [quinine hydrochloride, reference compound] |  |  | 0.14 µg/mL and 350 nM |  |
